Reference: the supplement of paper PMC12463676, “Small-molecule dissolution of stress granules by redox modulation benefits ALS models” (Nature Chemical Biology, 2025)

What was measured:
[1] = compound: NC(=O)CCCCC1CCSS1 [lipoamide]; assay: thermal stability z-score vs DMSO; higher = more thermally stabilized by treatment; conditions: HeLa, lipoamide concentration 100 µM
Protocol: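 Cellular thermal proteome profiling in HeLa cells. Cells were treated with 100 µM lipoamide for 1 h, with or without 1 mM arsenate for a further 1 h, then heated to ten temperatures (37-66.3 °C), and soluble protein was quantified by TMT mass spectrometry relative to 0.1% DMSO controls. The thermal stability score (sum of log2 fold changes minus the abundance score) was transformed to a z-score; mean of n = 3 experiments.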

[2] = compound: O=[As]([O-])(O)O.[K+] [potassium arsenate]; assay: as above; conditions: HeLa; arsenate concentration 1 mM
Protocol: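 Cellular thermal proteome profiling in HeLa cells treated with 1 mM arsenate for 1 h (DMSO pretreatment), heated to ten temperatures (37-66.3 °C). Soluble protein was quantified by TMT mass spectrometry relative to DMSO controls; the thermal stability score was transformed to a z-score; mean of n = 3 experiments.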

[3] = arsenate co-treatment: 1 mM arsenate 1 h
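Also: each temperature applied for 3 min, abundance score taken as mean log2 fold change at the two lowest temperatures, z-score obtained by mean subtraction and division by SD.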

UniProt P54920, sequence (P54920 whole entry): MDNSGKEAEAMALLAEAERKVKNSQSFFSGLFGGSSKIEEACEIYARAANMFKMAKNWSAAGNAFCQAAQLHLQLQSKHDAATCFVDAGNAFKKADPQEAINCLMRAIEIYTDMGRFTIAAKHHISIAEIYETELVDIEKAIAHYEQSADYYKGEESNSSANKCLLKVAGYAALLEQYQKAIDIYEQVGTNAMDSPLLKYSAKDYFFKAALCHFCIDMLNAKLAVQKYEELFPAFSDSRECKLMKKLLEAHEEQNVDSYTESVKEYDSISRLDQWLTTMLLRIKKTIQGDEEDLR
UniProt O95544, sequence (O95544 whole entry): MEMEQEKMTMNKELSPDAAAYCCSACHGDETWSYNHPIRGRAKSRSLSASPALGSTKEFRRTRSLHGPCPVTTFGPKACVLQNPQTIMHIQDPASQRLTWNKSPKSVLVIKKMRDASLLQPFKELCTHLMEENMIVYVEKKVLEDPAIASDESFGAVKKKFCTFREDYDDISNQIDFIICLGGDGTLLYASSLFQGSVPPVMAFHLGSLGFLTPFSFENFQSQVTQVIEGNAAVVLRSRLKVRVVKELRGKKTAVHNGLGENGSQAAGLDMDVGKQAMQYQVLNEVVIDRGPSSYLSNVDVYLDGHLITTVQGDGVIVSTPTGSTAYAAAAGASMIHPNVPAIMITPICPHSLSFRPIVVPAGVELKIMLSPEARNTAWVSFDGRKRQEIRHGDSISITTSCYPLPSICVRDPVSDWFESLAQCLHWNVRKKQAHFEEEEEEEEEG
UniProt Q93015, sequence (Q93015 whole entry): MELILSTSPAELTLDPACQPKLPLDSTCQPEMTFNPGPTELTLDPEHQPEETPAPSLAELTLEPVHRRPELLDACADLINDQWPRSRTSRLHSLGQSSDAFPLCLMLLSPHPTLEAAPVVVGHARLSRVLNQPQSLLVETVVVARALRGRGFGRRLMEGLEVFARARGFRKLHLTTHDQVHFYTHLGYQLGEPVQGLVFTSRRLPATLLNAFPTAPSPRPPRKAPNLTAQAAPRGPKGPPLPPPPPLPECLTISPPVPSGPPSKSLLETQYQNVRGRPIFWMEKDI
UniProt Q8NEY1, sequence (Q8NEY1 whole entry): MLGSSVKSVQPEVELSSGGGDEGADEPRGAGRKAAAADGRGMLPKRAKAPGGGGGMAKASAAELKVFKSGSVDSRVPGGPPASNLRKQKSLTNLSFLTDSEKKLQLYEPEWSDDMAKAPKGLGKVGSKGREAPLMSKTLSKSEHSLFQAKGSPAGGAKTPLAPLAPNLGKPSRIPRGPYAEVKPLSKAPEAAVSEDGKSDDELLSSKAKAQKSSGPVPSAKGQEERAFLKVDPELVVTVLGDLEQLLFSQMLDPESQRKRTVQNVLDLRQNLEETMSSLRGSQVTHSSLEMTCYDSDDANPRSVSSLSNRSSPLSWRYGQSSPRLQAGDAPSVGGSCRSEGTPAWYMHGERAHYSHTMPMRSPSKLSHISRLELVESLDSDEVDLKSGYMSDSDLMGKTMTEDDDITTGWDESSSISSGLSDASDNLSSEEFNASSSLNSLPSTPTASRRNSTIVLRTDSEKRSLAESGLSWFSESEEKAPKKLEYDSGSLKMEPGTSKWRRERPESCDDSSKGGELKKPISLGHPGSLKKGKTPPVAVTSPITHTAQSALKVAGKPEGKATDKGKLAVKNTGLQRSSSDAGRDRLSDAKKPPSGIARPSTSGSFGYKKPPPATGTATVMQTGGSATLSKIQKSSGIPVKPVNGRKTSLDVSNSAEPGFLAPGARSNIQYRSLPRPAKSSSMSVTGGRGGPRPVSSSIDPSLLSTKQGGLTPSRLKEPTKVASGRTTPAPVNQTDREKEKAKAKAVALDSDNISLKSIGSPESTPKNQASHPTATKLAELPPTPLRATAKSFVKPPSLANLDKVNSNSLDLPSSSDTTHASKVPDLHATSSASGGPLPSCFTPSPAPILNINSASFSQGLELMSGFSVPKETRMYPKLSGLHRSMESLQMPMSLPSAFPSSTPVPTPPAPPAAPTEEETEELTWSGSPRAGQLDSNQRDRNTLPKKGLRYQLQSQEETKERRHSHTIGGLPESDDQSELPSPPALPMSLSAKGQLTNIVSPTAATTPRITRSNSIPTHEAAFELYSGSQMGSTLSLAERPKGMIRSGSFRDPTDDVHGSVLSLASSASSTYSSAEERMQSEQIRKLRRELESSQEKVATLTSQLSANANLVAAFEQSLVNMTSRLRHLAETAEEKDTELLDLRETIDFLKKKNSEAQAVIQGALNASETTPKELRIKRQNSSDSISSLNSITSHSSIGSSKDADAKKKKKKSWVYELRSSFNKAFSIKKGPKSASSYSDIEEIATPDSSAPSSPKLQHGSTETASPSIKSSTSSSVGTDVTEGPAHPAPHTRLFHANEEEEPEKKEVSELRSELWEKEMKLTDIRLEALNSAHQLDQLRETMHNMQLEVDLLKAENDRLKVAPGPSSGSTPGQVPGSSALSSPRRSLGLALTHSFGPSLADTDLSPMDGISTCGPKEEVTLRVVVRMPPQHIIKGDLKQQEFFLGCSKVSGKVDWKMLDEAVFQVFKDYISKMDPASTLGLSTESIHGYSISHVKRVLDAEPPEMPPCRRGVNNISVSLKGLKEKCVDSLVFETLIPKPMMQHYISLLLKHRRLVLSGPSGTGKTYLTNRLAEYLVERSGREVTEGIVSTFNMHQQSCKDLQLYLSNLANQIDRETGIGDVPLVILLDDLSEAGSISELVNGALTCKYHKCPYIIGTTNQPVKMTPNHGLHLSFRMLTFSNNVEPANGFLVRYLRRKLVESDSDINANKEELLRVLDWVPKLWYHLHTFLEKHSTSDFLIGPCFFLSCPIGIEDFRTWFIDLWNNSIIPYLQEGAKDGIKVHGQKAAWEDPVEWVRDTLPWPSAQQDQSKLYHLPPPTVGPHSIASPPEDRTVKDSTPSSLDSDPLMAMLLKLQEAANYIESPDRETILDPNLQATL
UniProt Q96RE7, sequence (Q96RE7 whole entry): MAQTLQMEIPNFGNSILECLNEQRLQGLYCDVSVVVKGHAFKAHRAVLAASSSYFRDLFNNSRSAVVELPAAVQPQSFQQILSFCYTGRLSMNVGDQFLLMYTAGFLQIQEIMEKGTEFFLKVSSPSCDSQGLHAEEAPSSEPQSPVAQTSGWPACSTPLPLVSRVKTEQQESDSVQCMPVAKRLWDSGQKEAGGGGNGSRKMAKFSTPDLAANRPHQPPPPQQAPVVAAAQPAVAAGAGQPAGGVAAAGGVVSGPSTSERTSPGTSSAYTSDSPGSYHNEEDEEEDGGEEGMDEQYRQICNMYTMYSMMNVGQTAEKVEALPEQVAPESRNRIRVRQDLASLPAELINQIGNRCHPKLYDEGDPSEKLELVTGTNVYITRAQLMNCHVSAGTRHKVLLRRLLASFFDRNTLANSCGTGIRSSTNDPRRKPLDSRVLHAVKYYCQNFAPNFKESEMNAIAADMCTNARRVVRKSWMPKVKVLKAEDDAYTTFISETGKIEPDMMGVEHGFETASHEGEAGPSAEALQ
UniProt Q9UJ70, sequence (Q9UJ70 whole entry): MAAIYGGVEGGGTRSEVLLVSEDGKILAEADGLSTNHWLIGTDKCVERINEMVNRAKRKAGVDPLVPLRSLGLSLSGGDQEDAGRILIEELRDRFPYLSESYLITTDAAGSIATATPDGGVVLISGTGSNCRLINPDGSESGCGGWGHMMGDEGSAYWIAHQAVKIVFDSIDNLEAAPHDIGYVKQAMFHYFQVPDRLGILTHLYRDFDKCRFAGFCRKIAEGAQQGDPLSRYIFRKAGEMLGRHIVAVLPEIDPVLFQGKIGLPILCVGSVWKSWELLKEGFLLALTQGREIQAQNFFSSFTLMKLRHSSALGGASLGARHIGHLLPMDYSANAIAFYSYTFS
UniProt Q9H6Q4, sequence (Q9H6Q4 whole entry): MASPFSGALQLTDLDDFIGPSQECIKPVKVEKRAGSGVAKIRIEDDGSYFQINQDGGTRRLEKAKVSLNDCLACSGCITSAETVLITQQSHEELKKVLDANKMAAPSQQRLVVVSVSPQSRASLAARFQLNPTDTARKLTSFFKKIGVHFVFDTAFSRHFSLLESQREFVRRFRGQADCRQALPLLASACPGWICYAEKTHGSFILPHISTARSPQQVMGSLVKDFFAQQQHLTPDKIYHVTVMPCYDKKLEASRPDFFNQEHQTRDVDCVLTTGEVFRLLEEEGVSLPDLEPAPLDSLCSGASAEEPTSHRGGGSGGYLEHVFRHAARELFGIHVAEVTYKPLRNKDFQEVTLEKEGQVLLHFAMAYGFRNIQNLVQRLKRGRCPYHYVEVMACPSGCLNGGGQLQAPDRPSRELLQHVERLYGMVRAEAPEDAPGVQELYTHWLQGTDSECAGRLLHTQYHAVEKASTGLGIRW
UniProt Q9UK23, sequence (Q9UK23 whole entry): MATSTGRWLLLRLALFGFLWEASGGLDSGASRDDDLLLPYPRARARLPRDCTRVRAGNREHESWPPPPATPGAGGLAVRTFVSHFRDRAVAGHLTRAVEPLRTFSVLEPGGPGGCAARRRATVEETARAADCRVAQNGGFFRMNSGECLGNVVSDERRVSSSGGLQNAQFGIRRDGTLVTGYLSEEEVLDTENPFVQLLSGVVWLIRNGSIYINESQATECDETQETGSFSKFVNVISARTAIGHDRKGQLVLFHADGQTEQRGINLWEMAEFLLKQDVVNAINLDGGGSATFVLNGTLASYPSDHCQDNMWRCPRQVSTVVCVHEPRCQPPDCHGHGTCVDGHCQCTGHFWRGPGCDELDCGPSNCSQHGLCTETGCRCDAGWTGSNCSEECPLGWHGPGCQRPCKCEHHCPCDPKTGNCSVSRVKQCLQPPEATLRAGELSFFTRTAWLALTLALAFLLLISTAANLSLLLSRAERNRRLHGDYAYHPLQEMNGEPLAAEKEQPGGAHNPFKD
UniProt Q9BRA0, sequence (Q9BRA0 whole entry): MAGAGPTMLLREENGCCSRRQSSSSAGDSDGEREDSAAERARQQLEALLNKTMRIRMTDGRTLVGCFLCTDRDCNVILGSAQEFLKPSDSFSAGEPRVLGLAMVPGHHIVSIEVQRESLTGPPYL

With NAA25 (UniProt Q14CX7) the thermal stability z-score [1, 3] was 0.177, the thermal stability z-score ([1]; arsenate co-treatment: none) was 0.0532 and the thermal stability z-score [2] was -0.0259.

NAA30 (UniProt Q147X3) was tested, and the thermal stability z-score [1, 3] was -0.282, the thermal stability z-score ([1]; arsenate co-treatment: none) was 0.317 and the thermal stability z-score [2] was -0.43.

NAA35 (UniProt Q5VZE5) was tested, and the thermal stability z-score [1, 3] was 0.334, the thermal stability z-score ([1]; arsenate co-treatment: none) was 0.635 and the thermal stability z-score [2] was 0.265.

Target NAA38 (UniProt Q9BRA0) has a thermal stability z-score [1, 3] of 0.599, a thermal stability z-score ([1]; arsenate co-treatment: none) of 0.425 and a thermal stability z-score [2] of -0.643.

With NAA40 (UniProt Q86UY6) the thermal stability z-score [1, 3] was -0.126, the thermal stability z-score ([1]; arsenate co-treatment: none) was 0.2 and the thermal stability z-score [2] was 0.0387.

In the case of NAA50 (UniProt Q9GZZ1), the thermal stability z-score [1, 3] is reported as 0.872, the thermal stability z-score ([1]; arsenate co-treatment: none) is reported as 0.589 and the thermal stability z-score [2] is reported as 0.502.

Work on NAB2 (UniProt Q15742) yielded a thermal stability z-score [1, 3] of -0.402, a thermal stability z-score ([1]; arsenate co-treatment: none) of -2.02 and a thermal stability z-score [2] of 1.18.

NABP2 (UniProt Q9BQ15) was tested, and the thermal stability z-score [1, 3] was -0.423, the thermal stability z-score ([1]; arsenate co-treatment: none) was -0.174 and the thermal stability z-score [2] was -0.112.

With NACA the thermal stability z-score [1, 3] was 0.468, the thermal stability z-score ([1]; arsenate co-treatment: none) was 0.47 and the thermal stability z-score [2] was 0.508.

For NACC1 (UniProt Q96RE7), the thermal stability z-score [1, 3] was -0.376, the thermal stability z-score ([1]; arsenate co-treatment: none) was -0.495 and the thermal stability z-score [2] was -0.423.

NADK2 (UniProt Q4G0N4) was tested, and the thermal stability z-score [1, 3] was 0.539, the thermal stability z-score ([1]; arsenate co-treatment: none) was 0.491 and the thermal stability z-score [2] was -0.584.

Target NADK (UniProt O95544) has a thermal stability z-score [1, 3] of 0.88, a thermal stability z-score ([1]; arsenate co-treatment: none) of 0.314 and a thermal stability z-score [2] of -0.183.

Target NADSYN1 (UniProt Q6IA69) has a thermal stability z-score [1, 3] of 0.995, a thermal stability z-score ([1]; arsenate co-treatment: none) of 0.788 and a thermal stability z-score [2] of -0.0415.

NAE1 (UniProt Q13564) showed a thermal stability z-score [1, 3] of -0.406, a thermal stability z-score ([1]; arsenate co-treatment: none) of -0.333 and a thermal stability z-score [2] of -0.18.

In the case of NAF1 (UniProt Q96HR8), the thermal stability z-score [1, 3] is reported as 0.316, the thermal stability z-score ([1]; arsenate co-treatment: none) is reported as 0.23 and the thermal stability z-score [2] is reported as 0.149.

NAGA (UniProt P17050) showed a thermal stability z-score [1, 3] of -0.786, a thermal stability z-score ([1]; arsenate co-treatment: none) of -0.0771 and a thermal stability z-score [2] of 0.546.

With NAGK (UniProt Q9UJ70) the thermal stability z-score [1, 3] was 0.0756, the thermal stability z-score ([1]; arsenate co-treatment: none) was -0.796 and the thermal stability z-score [2] was -0.921.

With NAGLU (UniProt P54802) the thermal stability z-score [1, 3] was 0.208, the thermal stability z-score ([1]; arsenate co-treatment: none) was -0.281 and the thermal stability z-score [2] was 0.253.

For NAGPA (UniProt Q9UK23), the thermal stability z-score [1, 3] was -0.847, the thermal stability z-score ([1]; arsenate co-treatment: none) was -0.928 and the thermal stability z-score [2] was -1.05.

With NAMPT (UniProt P43490) the thermal stability z-score [1, 3] was 0.551, the thermal stability z-score ([1]; arsenate co-treatment: none) was 0.0412 and the thermal stability z-score [2] was -0.494.

NANP (UniProt Q8TBE9) was tested, and the thermal stability z-score [1, 3] was 0.191, the thermal stability z-score ([1]; arsenate co-treatment: none) was 0.0578 and the thermal stability z-score [2] was -0.582.

NANS (UniProt Q9NR45) was tested, and the thermal stability z-score [1, 3] was 0.185, the thermal stability z-score ([1]; arsenate co-treatment: none) was 0.107 and the thermal stability z-score [2] was 0.887.

For NAP1L1 (UniProt P55209), the thermal stability z-score [1, 3] was -0.552, the thermal stability z-score ([1]; arsenate co-treatment: none) was -0.224 and the thermal stability z-score [2] was -0.164.

For NAP1L4 (UniProt Q99733), the thermal stability z-score [1, 3] was -0.0111, the thermal stability z-score ([1]; arsenate co-treatment: none) was 0.113 and the thermal stability z-score [2] was -0.384.

Target NAPA (UniProt P54920) has a thermal stability z-score [1, 3] of 0.374, a thermal stability z-score ([1]; arsenate co-treatment: none) of 0.143 and a thermal stability z-score [2] of 1.02.

With NAPG (UniProt Q99747) the thermal stability z-score [1, 3] was -0.212, the thermal stability z-score ([1]; arsenate co-treatment: none) was -0.012 and the thermal stability z-score [2] was 0.0503.

Target NAPRT (UniProt Q6XQN6) has a thermal stability z-score [1, 3] of -0.379, a thermal stability z-score ([1]; arsenate co-treatment: none) of -0.0584 and a thermal stability z-score [2] of -0.197.

NARF (UniProt Q9UHQ1) showed a thermal stability z-score [1, 3] of 0.102, a thermal stability z-score ([1]; arsenate co-treatment: none) of -0.133 and a thermal stability z-score [2] of -0.0435.

NARFL (UniProt Q9H6Q4) was tested, and the thermal stability z-score [1, 3] was 0.327, the thermal stability z-score ([1]; arsenate co-treatment: none) was 0.0715 and the thermal stability z-score [2] was -0.0417.

In the case of NARS2 (UniProt Q96I59), the thermal stability z-score [1, 3] is reported as -0.454, the thermal stability z-score ([1]; arsenate co-treatment: none) is reported as 0.256 and the thermal stability z-score [2] is reported as -0.19.

NARS (UniProt O43776) gave a thermal stability z-score [1, 3] of -0.596, a thermal stability z-score ([1]; arsenate co-treatment: none) of -0.292 and a thermal stability z-score [2] of 1.17.

Target NASP (UniProt P49321) has a thermal stability z-score [1, 3] of -0.412, a thermal stability z-score ([1]; arsenate co-treatment: none) of 0.0851 and a thermal stability z-score [2] of 0.578.

NAT6 (UniProt Q93015) showed a thermal stability z-score [1, 3] of 0.0786, a thermal stability z-score ([1]; arsenate co-treatment: none) of -0.349 and a thermal stability z-score [2] of -0.338.

In the case of NAT10 (UniProt Q9H0A0), the thermal stability z-score [1, 3] is reported as 0.444, the thermal stability z-score ([1]; arsenate co-treatment: none) is reported as -0.105 and the thermal stability z-score [2] is reported as -0.812.

Target NAV1 (UniProt Q8NEY1) has a thermal stability z-score [1, 3] of -0.0334, a thermal stability z-score ([1]; arsenate co-treatment: none) of 0.0173 and a thermal stability z-score [2] of 0.073.

NAV2 (UniProt Q8IVL1) gave a thermal stability z-score [1, 3] of 0.0134, a thermal stability z-score ([1]; arsenate co-treatment: none) of -0.0355 and a thermal stability z-score [2] of -0.055.
